Test results published in patent US6221865A, “Inhibitors of protein isoprenyl transferases” (priority 1998, dated 2001).

Target: T1, protein farnesyltransferase (Rattus norvegicus, UniProt Q02293+Q04631)
T1 construct: The enzyme is purified according to Reiss, Y., et al., Cell, 62: 81-88 (1990), utilizing steps one through three; from tissue; host or cells: rat brain
Experiment: Inhibition of farnesyltransferase (scintillation proximity assay, rat brain enzyme, biotin-K Ras B fragment substrate)
Assay type: biochemical
Conditions: for % inhibition of farnesyltransferase at 1 × 10^-6 M: 1 × 10^-6 M (Table 2)
Method in brief: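 Enzyme from rat brain, partly purified (steps one to three), assayed by SPA kit using 0.1 mM final biotin-K Ras B peptide as prenyl acceptor rather than biotin-lamin. Activity given as percent inhibition.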

T1 sequence (Q02293 whole entry, one chain of several): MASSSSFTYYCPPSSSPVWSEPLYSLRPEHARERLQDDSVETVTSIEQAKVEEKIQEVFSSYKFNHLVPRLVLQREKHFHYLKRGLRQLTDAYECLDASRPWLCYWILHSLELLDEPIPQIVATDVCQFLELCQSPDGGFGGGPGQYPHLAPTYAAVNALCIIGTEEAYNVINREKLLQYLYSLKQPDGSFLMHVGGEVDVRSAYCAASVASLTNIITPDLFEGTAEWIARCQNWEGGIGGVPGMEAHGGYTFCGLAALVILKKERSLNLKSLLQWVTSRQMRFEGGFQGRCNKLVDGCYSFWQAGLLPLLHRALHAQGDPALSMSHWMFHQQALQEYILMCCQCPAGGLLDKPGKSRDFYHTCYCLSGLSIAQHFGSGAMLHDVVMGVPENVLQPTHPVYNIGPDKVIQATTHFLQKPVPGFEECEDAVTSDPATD

CSCC[C@H](NC(=O)c1ccc(CNCc2ccc(N)cc2)cc1-c1ccccc1)C(=O)O [Example 653]
% inhibition of farnesyltransferase at 1 × 10^-6 M: 62%

CSCC[C@H](NC(=O)c1ccc(CNc2cccc(CC(=O)O)c2)cc1-c1ccccc1)C(=O)O [Example 684]
% inhibition of farnesyltransferase at 1 × 10^-5 M (1 × 10^-5 M (Table 1)): 48%

CSCC[C@H](NC(=O)c1ccc(CNCCN(C(C)C)C(C)C)cc1-c1ccccc1)C(=O)O [Example 636]
% inhibition of farnesyltransferase at 1 × 10^-6 M: 72%
